Test results: patent US20240239801A1, “PYRIMIDO[5,4,D]PYRIMIDINE COMPOUNDS, COMPOSITIONS COMPRISING THEM AND USES THEREOF” (Université de Montréal, priority 2021, published 2024)

Assays:
[1] = test system: RAS-mutant HCT-116 cells pERK/pMEK; assay: Immunoblot analysis of pERK and pMEK; assay type: cell-based, human; settings: FIG. 2, 1 h treatment
Method: For immunoblotting analysis, 500,000 HCT-116 cells were plated in 1 mL of complete RPMI-1640 growth medium in 24-well flat-bottomed transparent dishes (Costar). Cells were maintained overnight at 37° C. under 5% CO2 before treatment with compounds' dilution series for one hour. Cells were then washed once in PBS and lized in 250 μL of Igepal Lysis Buffer (50 mM Tris-HCl pH 7.5, 150 mM NaCl, 1% Igepal-CA630, 1 mM EDTA, 10% Glycerol) supplemented with Leupeptin, Aprotinin, PMSF, phosphatase inhibitor cocktail (Sigma) and Na3VO4 at 4° C. for 15 minutes with gentle rocking. Cell extracts were then cleared by centrifugation at 20,000 g at 4° C. for 10 minutes. Cleared lysates were then transferred on ice in fresh tubes and then boiled in sample loading buffer (100 mM Tris-HCl pH 6.8, 4% SDS, 0.2% bromophenol blue, 20% glycerol, 200 mM β-mercaptoethanol) for 5 minutes prior to fractionation by SDS-PAGE and transfer to nitrocellulose membranes (PALL). […]

HCT116 pERK = assay: Phospho-ERK inhibition, AlphaLISA SureFire Ultra p-ERK 1/2; assay type: cell-based, human; settings: FIG. 1; RAS-mutant HCT116 cells
Procedure, shortened: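 IC50 derived by four-parameter fitting of % inhibition, with DMSO as 0% and 1 μM trametinib subtracted as background. Signal is AlphaLISA p-ERK1/2 (Thr202/Tyr204) in lysates of overnight-seeded cells (RPMI-1640, 5% FBS) treated 1 h with ten concentrations from 30 or 10 μM to 0.33 nM, 0.5% DMSO.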

YMIN of pERK IC50 dose response curve (HCT116 pERK): ~−600%
SMILES: CCCS(=O)(=O)Nc1ccc(F)c(C(=O)c2c[nH]c3ncc(Cl)cc23)c1F [PLX4720, reference compound]
paradoxical induction of pERK or pMEK signaling (immunoblot) [1]: induces the pathway
